Results published in EP0845210A1, “New herbicidal compositions” (RHONE-POULENC AGRICULTURE LTD., priority 1994, dated 1996).

Assays:
Assay type in all cases: in vivo
[1] = test system: Setaria viridis; assay: Procedure A: pre-emergence glasshouse pot test, growth reduction assessed two weeks after treatment; details: Table A1
Excerpt: (§1) Seed of the various species of broad-leaf or grass weeds were sown in unsterilised clay loam soil in 7 centimetre by 7 centimetre plastic plant pots. The pots were watered and allowed to drain. The soil surface was then sprayed with ranges of concentrations of either the individual herbicide or mixtures of two herbicides in various proportions, dissolved in a 50:50 by volume solution of acetone and water, using a track sprayer set to deliver the equivalent of 290 l/ha. All herbicides were used as unformulated technical materials except dimethenamid, which was used as the commercial formulation "Frontiere" (trade mark), a flowable containing 900g/l active ingredient; and alachlor, which was used as "Lasso" (trade mark), an emulsifiable concentrate formulation containing 480g/l active ingredient.
(§2) Treated pots were placed at random in four replicate blocks per treatment for each plant species. The pots were held, in a glasshouse, standing on moist capillary matting, under lights and with overhead watering twice daily.
(§3) Two weeks after treatment the percent reduction in plant growth, compared to an untreated control, was assessed.
(§4) Mean percent reduction in plant growth was calculated for each treatment. Dose/mean response was plotted on Log concentration/Probability graph paper, and lines fitted by eye. For herbicide mixtures a dose/response line for the first herbicide was drawn for each dose rate of the second herbicide and a dose/response line for the second herbicide was drawn for each dose rate of the first herbicide. The doses representing a 90% reduction in plant growth (LD90's) were read from these lines and plotted on graphs whose axes were dose rates of the two herbicides. The line joining these points is an Isobole i.e. a line joining points (mixtures) of equal activity, as described by P.M.L. Tammes, Neth. J. Plant Path. 70 (1964) : 73-80. A line was also drawn joining the LD90's of the individual components of the mixture. This line represents the theoretical isobole if the effect of the two components is additive i.e. there is no interaction between them. Isoboles falling below this line indicate synergy between the components while lines lying above it indicate antagonism.
(§5) In the tables that follow 'dose' represents the dose rate in grammes per hectare of the active ingredient used; and the figures for the weed control are percentages reduction in growth when compared with the untreated controls.

[2] = test system: Digitaria sanguinalis; assay: as above
Excerpt: as §1, §2, §3, §4, §5

[3] = test system: Echinochloa crus-galli; assay: as above
Excerpt: as §1, §2, §3, §4, §5

[4] = test system: Amaranthus retroflexus; assay: as above; details: Table A2
Excerpt: as §1, §2, §3, §4, §5

[5] = test system: maize; assay: Procedure C: field trial of crop phytotoxicity, visual assessment 40 days after sowing
Protocol: The experiments were carried out pre-emergence of the weed species at various research farm locations throughout the Mid-West corn belt in United States of America with Compounds A and D (each formulated as wettable powders) and metolachlor (formulated as a 96% emulsifiable concentrate), alachlor (formulated as a 48% emulsifiable concentrate) and dimethenamid (formulated as a 90% emulsifiable concentrate).
Various mixtures of the above 4-benzoylisoxazoles and chloroacetamides were weighed out and dissolved in water to give a solution containing the appropriate concentrations and ratios of active ingredients.
The solution was mixed for one hour and applied at a spray volume of 231 litres/hectare to a 3 metre by 5 metre test plot comprising the maize seed which were sown 2 days earlier. 3 replicates were performed. The experiments were performed using seven varities of maize (except for the mixtures comprising alachlor at 1120 g per hectare, where four varieties were used). A control plot was sprayed with a solution not containing test compound. Visual assessment of phytotoxicity was made 40 days after sowing the maize seeds based on a comparison with the control plot. Table F1

[6] = test system: maize (Zea mays); assay: Procedure D: pre-emergence field trial (Volga, Brookings), crop phytotoxicity about 26 days after treatment; details: A 37.5 g/ha alone
Protocol: The following experiments were carried out pre-emergence of the weed species. Compound A, formulated as a wettable dispersible granule as described in Example 1 herebelow (750g per kilogram) and each acetochlor (used as the commercially available formulation "Harness" (trade mark), an emulsifiable concentrate containing 960g of acetochlor per kilogram, and which also contains the safening agent flurazole, metolachlor (used as the commercially available formulation "Duelor" (trade mark), an emulsifiable concentrate emulsifiable concentrate containing 960g of metolachlor per kilogram), alachlor (used as the commercially available formulation "Lasso" (trade mark), an emulsifiable concentrate containing 480g of alachlor per kilogram) and dimethenamid (used as the commercially available formulation "Frontiere" (trade mark), a flowable containing 900g/l active ingerident) were dissolved in water and sprayed at a volume rate of 187 litres/hectare on various test plots (10 square meters in area) either alone or in mixtures. The soil was a clay-loam, with a pH of 7, the experiments being conducted in June in Volga, Brookings, U.S.A. The various weed and crop species were drill sown and the various compositions were applied on the same day after drilling. Three replicates were performed and the efficacy of the various mixtures were determined by visual assessment of the percentage phytotoxicity in comparison with an untreated control. Assessment was made about 26 days after treatment. In the Tables which follow the dose is expressed in grammes per hectare and the figures in brackets represent the expected results according to the Colby formula.

## CS(=O)(=O)c1cc(C(F)(F)F)ccc1C(=O)c1cnoc1C1CC1 [Compound A, 5-cyclopropyl-4-(2-methylsulphonyl-4-trifluoromethyl)benzoylisoxazole]
[1]; A 0.5 g/ha alone
  percent reduction in plant growth: 15%
[1]; A 1 g/ha alone
  percent reduction in plant growth: 5%
[1]; A 2 g/ha alone
  percent reduction in plant growth: 47.5%
[1]; A 4 g/ha alone
  percent reduction in plant growth: 33.75%
[1]; A 8 g/ha alone
  percent reduction in plant growth: 38.75%
[1]; A 16 g/ha alone
  percent reduction in plant growth: 53.75%
[1]; A 32 g/ha alone
  percent reduction in plant growth: 70%
[1]; A 64 g/ha alone
  percent reduction in plant growth: 76%
[1]; A 128 g/ha alone
  percent reduction in plant growth: 88.75%
[2]; A 1 g/ha alone, Table B1
  percent reduction in plant growth: 18.75%
[2]; A 1 g/ha alone, Table D1
  percent reduction in plant growth: 0%
[2]; A 2 g/ha alone, Table B1
  percent reduction in plant growth: 20%
[2]; A 2 g/ha alone, Table C1
  percent reduction in plant growth: 20%
[2]; A 2 g/ha alone, Table D1
  percent reduction in plant growth: 12.5%
[2]; A 4 g/ha alone, Table B1
  percent reduction in plant growth: 33.75%
[2]; A 4 g/ha alone, Table C1
  percent reduction in plant growth: 40%
[2]; A 4 g/ha alone, Table D1
  percent reduction in plant growth: 17.5%
[2]; A 8 g/ha alone, Table B1
  percent reduction in plant growth: 67.5%
[2]; A 8 g/ha alone, Table C1
  percent reduction in plant growth: 7.5%
[2]; A 8 g/ha alone, Table D1
  percent reduction in plant growth: 61.25%
[2]; A 16 g/ha alone, Table B1
  percent reduction in plant growth: 50%
[2]; A 16 g/ha alone, Table C1
  percent reduction in plant growth: 50%
[2]; A 16 g/ha alone, Table D1
  percent reduction in plant growth: 67.5%
[2]; A 32 g/ha alone, Table B1
  percent reduction in plant growth: 73.5%
[2]; A 32 g/ha alone, Table C1
  percent reduction in plant growth: 74.75%
[2]; A 32 g/ha alone, Table D1
  percent reduction in plant growth: 66%
[2]; A 64 g/ha alone, Table B1
  percent reduction in plant growth: 87.5%
[2]; A 64 g/ha alone, Table C1
  percent reduction in plant growth: 80%
[2]; A 64 g/ha alone, Table D1
  percent reduction in plant growth: 95%
[2]; A 128 g/ha alone, Table C1
  percent reduction in plant growth: 93.5%
[2]; A 128 g/ha alone, Table D1
  percent reduction in plant growth: 76.25%
[2]; A 256 g/ha alone, Table D1
  percent reduction in plant growth: 98.75%
[3]; A 1 g/ha alone, Table B2
  percent reduction in plant growth: 12.5%
[3]; A 1 g/ha alone, Table D2
  percent reduction in plant growth: 11.25%
[3]; A 2 g/ha alone, Table B2
  percent reduction in plant growth: 6.25%
[3]; A 2 g/ha alone, Table C2
  percent reduction in plant growth: 3.75%
[3]; A 2 g/ha alone, Table D2
  percent reduction in plant growth: 7.5%
[3]; A 4 g/ha alone, Table B2
  percent reduction in plant growth: 1.25%
[3]; A 4 g/ha alone, Table C2
  percent reduction in plant growth: 2.5%
[3]; A 4 g/ha alone, Table D2
  percent reduction in plant growth: 15%
[3]; A 8 g/ha alone, Table B2
  percent reduction in plant growth: 61.25%
[3]; A 8 g/ha alone, Table C2
  percent reduction in plant growth: 32.5%
[3]; A 8 g/ha alone, Table D2
  percent reduction in plant growth: 15%
[3]; A 16 g/ha alone, Table B2
  percent reduction in plant growth: 71.25%
[3]; A 16 g/ha alone, Table C2
  percent reduction in plant growth: 60%
[3]; A 16 g/ha alone, Table D2
  percent reduction in plant growth: 62.5%
[3]; A 32 g/ha alone, Table B2
  percent reduction in plant growth: 75%
[3]; A 32 g/ha alone, Table C2
  percent reduction in plant growth: 90%
[3]; A 32 g/ha alone, Table D2
  percent reduction in plant growth: 86%
[3]; A 64 g/ha alone, Table B2
  percent reduction in plant growth: 93.5%
[3]; A 64 g/ha alone, Table C2
  percent reduction in plant growth: 97%
[3]; A 64 g/ha alone, Table D2
  percent reduction in plant growth: 87.5%
[3]; A 128 g/ha alone, Table B2
  percent reduction in plant growth: 93.75%
[3]; A 128 g/ha alone, Table C2
  percent reduction in plant growth: 99.75%
[3]; A 128 g/ha alone, Table D2
  percent reduction in plant growth: 99.5%
[3]; A 256 g/ha alone, Table D2
  percent reduction in plant growth: 92.5%
[4]; A 1 g/ha alone
  percent reduction in plant growth: 12.5%
[4]; A 2 g/ha alone
  percent reduction in plant growth: 51.25%
[4]; A 4 g/ha alone
  percent reduction in plant growth: 12.5%
[4]; A 8 g/ha alone
  percent reduction in plant growth: 87.5%
[4]; A 16 g/ha alone
  percent reduction in plant growth: 92.5%
[4]; A 32 g/ha alone
  percent reduction in plant growth: 99.75%
[4]; A 64 g/ha alone
  percent reduction in plant growth: 99.75%
[5]; A 78 g/ha alone
  Visual assessment of phytotoxicity: 0
[5]; A 105 g/ha alone
  Visual assessment of phytotoxicity: 0
[6]
  percentage phytotoxicity: 0%
